Measurements from ChEMBL document CHEMBL1127583, “Discovery of a potent, peripherally selective trans-3,4-dimethyl-4-(3-hydroxyphenyl)piperidine opioid antagonist for the treatment of gastrointestinal motility disorders” (J Med Chem, 1994).

What was measured:
[1] = system: Mus musculus; experiment: Tested for reduction in the analgesic response to morphine after subcutaneous administration of 1.25 mg/kg in abdominal stretching assay; type: functional, Abdomen
[2] = target: Kappa-type opioid receptor (Cavia porcellus) (UniProt P41144); experiment: Tested for binding affinity towards kappa receptor in presence of [3H]EKC radioligand at 10 nM
[3] = target: Kappa-type opioid receptor (Cavia porcellus) (UniProt P41144); experiment: Tested for binding affinity towards kappa receptor in presence of [3H]EKC radioligand at 100 nM
[4] = system: Mus musculus; experiment: Tested for effective dose required to produce diarrhea in morphine dependent mice after peroral administration; type: functional
[5] = system: Mus musculus; experiment: Tested for effective dose required to produce diarrhea in morphine dependent mice after subcutaneous administration; type: functional
[6] = target: Mu-type opioid receptor (Rattus norvegicus, UniProt P33535); experiment: Tested for binding affinity towards mu receptor in presence of [3H]NAL radioligand
[7] = target: Delta-type opioid receptor (Rattus norvegicus, UniProt P33533); experiment: Tested for binding affinity towards delta receptor in rat brain homogenates using [3H]D-Ala2-[…]-enkephalin as radioligand; type: tissue-based
[8] = target: T1, Kappa-type opioid receptor (Cavia porcellus, UniProt P41144); experiment: Tested for binding affinity towards kappa receptor in presence of [3H]EKC radioligand
[9] = target: T1, Kappa-type opioid receptor; experiment: Tested for its antagonist activity against kappa receptor using U-69,593 […] in isolated guinea pig ileum; type: functional, tissue-based; details: read-out: pA2 (converted)
[10] = target: Mu-type opioid receptor (Cavia porcellus, UniProt P97266); experiment: Tested for its antagonist activity against mu receptor using DAMGO […] in isolated guinea pig ileum; type: functional, tissue-based; details: read-out: pA2 (converted)
[11] = target: Delta-type opioid receptor (Mus musculus, UniProt P32300); experiment: Tested for its antagonist activity against (DPDE)delta receptor in mouse vas deferens; type: functional, tissue-based; details: read-out: pA2 (converted)
[12] = target: Mu-type opioid receptor (Rattus norvegicus) (UniProt P33535); experiment: Tested for binding affinity towards mu receptor in presence of [3H]NAL radioligand at 10 nM
[13] = target: Mu-type opioid receptor (Rattus norvegicus) (UniProt P33535); experiment: Tested for binding affinity towards mu receptor in presence of [3H]NAL radioligand at 100 nM
[14] = Mus musculus, po, read-out: ED50
[15] = Mus musculus, sc, read-out: ED50

T1 sequence (P41144 whole entry): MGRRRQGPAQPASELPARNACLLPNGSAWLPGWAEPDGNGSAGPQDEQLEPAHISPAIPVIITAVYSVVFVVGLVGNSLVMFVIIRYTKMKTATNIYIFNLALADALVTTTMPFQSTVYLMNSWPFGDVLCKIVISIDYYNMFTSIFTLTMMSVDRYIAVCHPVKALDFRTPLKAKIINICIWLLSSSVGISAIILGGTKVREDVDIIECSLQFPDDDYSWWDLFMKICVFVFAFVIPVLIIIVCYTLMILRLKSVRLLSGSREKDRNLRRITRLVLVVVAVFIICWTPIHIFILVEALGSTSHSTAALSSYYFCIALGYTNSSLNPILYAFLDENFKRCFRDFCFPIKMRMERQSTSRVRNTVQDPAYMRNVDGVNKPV
Kappa-type opioid receptor (Cavia porcellus), sequence (P41144 whole entry): as above
Mu-type opioid receptor (Rattus norvegicus, UniProt P33535), sequence (P33535 whole entry): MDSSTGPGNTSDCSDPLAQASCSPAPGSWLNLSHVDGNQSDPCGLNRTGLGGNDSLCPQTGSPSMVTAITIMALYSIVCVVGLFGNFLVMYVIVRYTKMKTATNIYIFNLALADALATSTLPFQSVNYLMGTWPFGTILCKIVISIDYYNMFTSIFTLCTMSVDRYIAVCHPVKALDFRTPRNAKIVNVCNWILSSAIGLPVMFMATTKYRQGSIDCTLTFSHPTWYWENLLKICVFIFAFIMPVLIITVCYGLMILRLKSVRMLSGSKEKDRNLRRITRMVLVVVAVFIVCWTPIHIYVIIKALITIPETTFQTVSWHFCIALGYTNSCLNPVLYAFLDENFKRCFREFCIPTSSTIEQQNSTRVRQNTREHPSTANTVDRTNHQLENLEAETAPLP
Mu-type opioid receptor (Rattus norvegicus), sequence (P33535 whole entry): as above
Delta-type opioid receptor (Rattus norvegicus, UniProt P33533), sequence (P33533 whole entry): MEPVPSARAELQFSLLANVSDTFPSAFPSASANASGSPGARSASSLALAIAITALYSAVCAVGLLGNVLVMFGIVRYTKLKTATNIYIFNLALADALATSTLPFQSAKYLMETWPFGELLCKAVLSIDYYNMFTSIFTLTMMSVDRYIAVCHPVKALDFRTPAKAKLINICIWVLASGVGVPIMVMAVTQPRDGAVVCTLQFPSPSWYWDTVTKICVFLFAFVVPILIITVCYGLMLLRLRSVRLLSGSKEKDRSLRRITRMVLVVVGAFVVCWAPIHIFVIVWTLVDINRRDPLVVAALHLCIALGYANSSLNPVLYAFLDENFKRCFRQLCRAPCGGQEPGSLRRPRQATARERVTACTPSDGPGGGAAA
Delta-type opioid receptor (Mus musculus, UniProt P32300), sequence (P32300 whole entry): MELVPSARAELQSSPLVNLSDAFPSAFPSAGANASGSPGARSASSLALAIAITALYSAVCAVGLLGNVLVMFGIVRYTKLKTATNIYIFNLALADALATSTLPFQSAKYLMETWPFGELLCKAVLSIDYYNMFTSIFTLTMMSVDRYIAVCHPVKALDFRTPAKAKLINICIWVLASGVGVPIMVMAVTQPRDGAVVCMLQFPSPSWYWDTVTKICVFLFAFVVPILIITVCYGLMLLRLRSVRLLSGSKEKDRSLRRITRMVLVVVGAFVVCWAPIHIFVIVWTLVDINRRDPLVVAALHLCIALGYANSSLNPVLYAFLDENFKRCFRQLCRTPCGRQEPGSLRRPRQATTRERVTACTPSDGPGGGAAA
Mu-type opioid receptor (Cavia porcellus, UniProt P97266), sequence (P97266 whole entry): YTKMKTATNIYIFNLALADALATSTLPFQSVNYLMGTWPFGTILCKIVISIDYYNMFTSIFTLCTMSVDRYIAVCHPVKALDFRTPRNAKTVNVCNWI

SMILES	AD50 [1] [mg/kg]	Specific Displacement [2] [%]	Specific Displacement [3] [%]	ED50 [4, 14] [mg/kg]	ED50 [5, 15] [mg/kg]	Ki [6] [nM]	other results
C[C@H]1CN(CC(Cc2ccccc2)C(=O)NCC(=O)O)CC[C@@]1(C)c1cccc(O)c1 (stereo not given in full)	>40	23	53	2	0.028	–	–
C[C@H]1CN(CC(Cc2ccccc2)C(=O)O)CC[C@@]1(C)c1cccc(O)c1 (stereo not given in full)	–	0	15	–	0.028	–	–
CC(C)COC(=O)CNC(=O)[C@@H](Cc1ccccc1)CN1CCC(C)(c2cccc(O)c2)C(C)C1 (single isomer, unassigned)	–	4	55	1.7	–	19.2	AD50 ([1]; 1.25 mg/kg): 16.8 mg/kg; ED50 [5]: 0.02 mg/kg
CC(C)COC(=O)CNC(=O)C(Cc1ccccc1)CN1CCC(C)(c2cccc(O)c2)C(C)C1 (racemic)	>40	7	16	1.1	0.15	4	–
CC1CN(C[C@H](Cc2ccccc2)C(=O)NCC(=O)O)CCC1(C)c1cccc(O)c1 (stereo not given in full)	9	–	–	0.84	0.04	0.77	Ki [7]: 4.4 nM; Ki [8]: 40 nM; Kb [9]: 15.8 nM; Kb [10]: 0.2 nM; Kb [11]: 2 nM
CC(C)COC(=O)CNC(=O)[C@@H](Cc1ccccc1)CN1CC[C@@](C)(c2cccc(O)c2)[C@@H](C)C1	–	–	–	–	–	5.5	AD50 ([1]; 1.25 mg/kg): 11.6 mg/kg; ED50 [4]: 1.3 mg/kg; Ki [8]: 23 nM; ED50 [5]: 0.044 mg/kg
CC(C)COC(=O)CNC(=O)[C@H](Cc1ccccc1)CN1CC[C@](C)(c2cccc(O)c2)[C@H](C)C1	>40	0	34	> 10	0.37	–	Specific Displacement [12]: 57%; Specific Displacement [13]: 92%
CC(C)COC(=O)CNC(=O)[C@H](Cc1ccccc1)CN1CC[C@@](C)(c2cccc(O)c2)[C@@H](C)C1	29.6	0	0	> 10	0.5	–	Specific Displacement [12]: 11%; Specific Displacement [13]: 70%
C=CCN1CC[C@]23c4c5ccc(O)c4O[C@H]2C(=O)CC[C@@]3(O)[C@H]1C5 [NALOXONE]	0.08	–	–	–	0.05	–	–
